Results: ChEMBL document CHEMBL1154313, “Synthesis, antiproliferative, and pharmacokinetic properties of 3- and 17-double-modified analogs of 2-methoxyestradiol” (Bioorg Med Chem Lett, 2009)
The source made the active and inactive calls. The rule behind the calls is not given here.

Experiments:
MCF7 = assay: Antiproliferative activity against human MCF7 cells after 48 hrs by WST1 assay; assay type: functional, cell-based
MDA-MB-231 [1] = assay: Ratio of 2ME2 IC50 to compound IC50 for human MDA-MB-231 cells; assay type: functional
MDA-MB-231 [2] = assay: Antiproliferative activity against human MDA-MB-231 cells after 48 hrs by WST1 assay; assay type: functional, cell-based; details: MDA-MB-231, 48 h
HUVEC [3] = assay: Antiangiogenic activity against HUVEC assessed as growth inhibition after 48 hrs by WST1 assay; assay type: functional, cell-based; details: Homo sapiens
HUVEC [4] = assay: Ratio of 2ME2 IC50 to compound IC50 for antiangiogenic activity against HUVEC; assay type: functional, Homo sapiens
HUVEC [5] = assay: Ratio of compound IC50 to 2ME2 IC50 for antiangiogenic activity against HUVEC; assay type: functional, Homo sapiens
[6] = AUC (0 to infinity) in CD1 mouse at 45 mg/m'2 of body surface, po administered as single dose; assay type: ADME, organism-based; design: time infinity, route oral; details: plasma
[7] = Half life in CD1 mouse at 45 mg/m'2 of body surface, po administered as single dose; assay type: ADME, organism-based; details: in vivo
[8] = Cmax in CD1 mouse at 45 mg/m'2 of body surface, po administered as single dose; assay type: ADME, organism-based; design: route oral; details: in vivo
MDA-MB-231 [9] = assay: Ratio of compound IC50 to 2ME2 IC50 for human MDA-MB-231 cells; assay type: functional
Mus musculus [10] = assay: Ratio of compound AUC (0 to infinity) to 2ME2 AUC (0 to infinity) in CD1 mouse at 45 mg/m'2 of body surface, po administered as single dose; assay type: ADME, organism-based; details: in vivo
Mus musculus [11] = assay: Ratio of compound Cmax to 2ME2 Cmax in CD1 mouse at 45 mg/m'2 of body surface, po administered as single dose; assay type: ADME, organism-based; details: in vivo

Compound	Activity (MCF7)	Ratio IC50 (MDA-MB-231 [1])	IC50 (MDA-MB-231 [2]) [nM]	IC50 (HUVEC [3]) [nM]	Ratio IC50 (HUVEC [4])	Ratio IC50 (HUVEC [5])	AUC(0-inf) [6] [µM·h]	half-life [7] [h]	Cmax [8] [nM]	Ratio IC50 (MDA-MB-231 [9])	Ratio (Mus musculus [10])	Ratio (Mus musculus [11])
C=C1CC[C@H]2[C@@H]3CCc4cc(NC=O)c(OC)cc4[C@H]3CC[C@]12C	Active	2	300	220	3	–	–	–	–	–	–	–
COc1cc2c(cc1C(N)=O)CC[C@@H]1[C@@H]2CC[C@]2(C)C(=O)CC[C@@H]12	Active	–	2200	5460	–	8	–	–	–	–	–	–
C=C1CC[C@H]2[C@@H]3CCc4cc(C(N)=O)c(OC)cc4[C@H]3CC[C@]12C	Active	6	120	250	5	–	3.2	4.8	334	–	–	–
COC(=O)Nc1cc2c(cc1OC)[C@H]1CC[C@]3(C)C(=O)CC[C@H]3[C@@H]1CC2	Active	–	5600	8220	–	–	–	–	–	–	–	–
COc1cc2c(cc1NC=O)CC[C@@H]1[C@@H]2CC[C@]2(C)[C@@H](C)CC[C@@H]12	Active	2	610	590	3	–	–	–	–	–	–	–
COc1cc2c(cc1NC(C)=O)CC[C@@H]1[C@@H]2CC[C@]2(C)CCC[C@@H]12	Active	–	9250	1680	–	–	–	–	–	–	–	–
COc1cc2c(cc1NC=O)CC[C@@H]1[C@@H]2CC[C@]2(C)C(=O)CC[C@@H]12	Active	–	1220	530	3	–	–	–	–	10	–	–
COc1cc2c(cc1NC(N)=O)CC[C@@H]1[C@@H]2CC[C@]2(C)C(=O)CC[C@@H]12	Active	–	710	610	–	–	–	–	–	–	–	–
CCNC(=O)c1cc2c(cc1OC)[C@H]1CC[C@]3(C)CCC[C@H]3[C@@H]1CC2	Active	–	53000	38000	–	–	–	–	–	–	–	–
COc1cc2c(cc1NC#N)CC[C@@H]1[C@@H]2CC[C@]2(C)C(=O)CC[C@@H]12	Active	–	200	250	–	–	–	–	–	–	–	–
COc1cc2c(cc1C(N)=O)CC[C@@H]1[C@@H]2CC[C@]2(C)C=CC[C@@H]12	Active	6	200	130	5	–	3.36	2.1	1430	–	23	5
C=C1CC[C@H]2[C@@H]3CCc4cc(N)c(OC)cc4[C@H]3CC[C@]12C	Active	–	2110	1000	–	–	–	–	–	–	–	–
C/C=C1\CC[C@H]2[C@@H]3CCc4cc(NC=O)c(OC)cc4[C@H]3CC[C@]12C	Active	2	560	580	3	–	–	–	–	–	–	–
COc1cc2c(cc1N)CC[C@@H]1[C@@H]2CC[C@]2(C)C(=O)CC[C@@H]12	Active	–	46900	23400	–	–	–	–	–	–	–	–
COc1cc2c(cc1NC=O)CC[C@@H]1[C@@H]2CC[C@]2(C)CCC[C@@H]12	Active	–	8290	5800	–	8	–	–	–	10	–	–
COc1cc2c(cc1N)CC[C@@H]1[C@@H]2CC[C@]2(C)[C@@H](C)CC[C@@H]12	Active	–	7310	2650	–	–	–	–	–	–	–	–
COc1cc2c(cc1C(N)=O)CC[C@@H]1[C@@H]2CC[C@]2(C)CCC[C@@H]12	Active	–	1860	1190	–	8	2.53	1.1	504	3	–	–
COC(=O)Oc1cc2c(cc1OC)[C@H]1CC[C@]3(C)C(=O)CC[C@H]3[C@@H]1CC2	Active	–	25000	32900	–	–	–	–	–	–	–	–
COc1cc2c(cc1O)CC[C@@H]1[C@@H]2CC[C@]2(C)[C@@H](O)CC[C@@H]12 [2-METHOXYESTRADIOL]	Active	–	790	680	–	–	0.142	0.3	294	–	–	–
C=Cc1cc2c(cc1OC)[C@H]1CC[C@]3(C)CCC[C@H]3[C@@H]1CC2	Active	–	1860	580	–	–	–	–	–	–	–	–
C/C=C1\CC[C@H]2[C@@H]3CCc4cc(N)c(OC)cc4[C@H]3CC[C@]12C	Active	–	1940	720	–	–	–	–	–	–	–	–
COc1cc2c(cc1N)CC[C@@H]1[C@@H]2CC[C@]2(C)CCC[C@@H]12	Active	–	7380	4720	–	–	–	–	–	–	–	–
